Measured values taken from patent US11896733B2, “Apparatuses, methods, and compositions for the treatment and prophylaxis of chronic wounds” (KCI Licensing, Inc., priority 2010, dated 2024).

Key:
MMP-9 = target: T1, MMP-9 (Homo sapiens, UniProt P14780); assay: MMP-9 Colorimetric Drug Discovery Kit (Biomol): MMP-9 activity reduction by dressings; assay type: biochemical; conditions: compared to control samples with no MMP-9 inhibitor activity
T1 construct: purchased Biomol
Source text: A National Diagnostics Hydrogen Peroxide Assay Kit was used to evaluate the antioxidant properties of foam pads and the formulated coated foam pads containing alpha-lipoic acid. Foam pads coated only with gelatin were used as controls. FIG. 7 is a graph showing the percentage of hydrogen peroxide reduction due to reaction with alpha-lipoic acid. An MMP-9 Colorimetric Drug Discovery Kit (Biomol) was used to evaluate the MMP inhibiting/inactivating ability of the formulated foam pads containing alpha-lipoic acid/gelatin (ALA) and gelatin alone (GF GEL). The controls were uncoated foam pads and known potent MMP inactivating drug, NNGH (C13H20N2O5S, available from Enzo® Life Sciences). […] FIG. 9 is a graph showing the release of alpha-lipoic acid from the coating on the foam pads. The coating delivers approximately 70% of the total alpha-lipoic acid within the first day, while the remaining alpha-lipoic acid is released during the next 2-3 days.
Coated polyurethane foam (GranuFoam®) scaffolds described above in Examples 1-2 were further assayed for their ability to reduce MMP activity as compared to non-coated collagen based scaffold such as the Biostep™ and Promogran™ products.

[1] = Release of alpha-lipoic acid from the coating on foam pads; assay type: physicochemical; conditions: gelatin coating on foam pads (FIG. 9)
Source text: Polyurethane open-cell reticulated foam pads were selected as the scaffold 140 and were immersed in a solution containing 1.5 wt % of alpha-lipoic acid and 4.5 wt % 225-bloom beef gelatin (and, where applicable, 0.3% EDTA). Gelatin was used as a biocompatible binding agent with good oxygen barrier and sustained release properties for alpha-lipoic acid as well as for its ability to act as a sacrificial substrate for surrounding gelatinases. Alpha-lipoic acid was pre-dissolved in ethanol and then mixed into the final solution. The foam pads were immersed for a sufficient amount of time to coat the pathways formed within the open-cell reticulated foam as described above with respect to the scaffold 140. After immersion, the foam pads were withdrawn, compressed to remove excess solution, and dried to a constant weight. In some cases, sodium benzoate was added to the formulation as a preservative. Dried foams comprised, by weight, 2% alpha-lipoic acid, 6% gelatin and, where applicable, 0.4% EDTA.
A National Diagnostics Hydrogen Peroxide Assay Kit was used to evaluate the antioxidant properties of foam pads and the formulated coated foam pads containing alpha-lipoic acid. Foam pads coated only with gelatin were used as controls. FIG. 7 is a graph showing the percentage of hydrogen peroxide reduction due to reaction with alpha-lipoic acid. […]

T1 sequence (P14780 107-444 limits assumed): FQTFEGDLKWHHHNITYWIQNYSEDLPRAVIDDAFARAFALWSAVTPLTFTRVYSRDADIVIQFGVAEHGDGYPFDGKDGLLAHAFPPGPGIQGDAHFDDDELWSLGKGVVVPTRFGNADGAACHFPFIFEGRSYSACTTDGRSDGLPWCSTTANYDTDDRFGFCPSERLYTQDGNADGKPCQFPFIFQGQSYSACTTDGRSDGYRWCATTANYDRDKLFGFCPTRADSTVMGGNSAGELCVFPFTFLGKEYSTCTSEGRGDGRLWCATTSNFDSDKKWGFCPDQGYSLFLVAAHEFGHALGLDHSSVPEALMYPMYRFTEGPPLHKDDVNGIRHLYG

time over which the remaining alpha-lipoic acid is released ([1]; after the first day) | fraction of the total alpha-lipoic acid delivered by the coating ([1]; within the first day) | Structure (SMILES) | % MMP-9 activity reduction (MMP-9; Table 1 (first of two separate experiments)) | % MMP-9 activity reduction (MMP-9; Table 2 (second of two separate experiments))
 |  | COc1ccc(S(=O)(=O)N(CC(=O)NO)CC(C)C)cc1 [NNGH] | 90.2% | 103.8%
2 to 3 days | approximately 70% | O=C(O)CCCCC1CCSS1 (stereo not drawn) [alpha-lipoic acid] |  | 
